Measurements reported in US20230286983A1 (4E Therapeutics, Inc., priority 2020, published 2023).
Values joined by “and” are separate entries in the source; they are usually repeats but may differ in a detail not shown here. Equal values may be shown once. Read-outs that look alike come from different tables or passages of the source.

Legend:
[1] = system: eIF4E phosphorylation at Serine 209 in the human osteosarcoma (U2OS) cell line; test: eIF4E phosphorylation in U2OS cells (fluorescent plate reader); assay type: cell-based; conditions: Homo sapiens, U2OS; eIF4E phosphorylation at Serine 209, 2 hours exposure
Experimental: The ability of MNK inhibitors described herein to inhibit eIF4E phosphorylation at Serine 209 in the human osteosarcoma (U2OS) cell line was tested by exposing the cells to compound for 2 hours and then measuring eIF4E phosphorylation with a phosphorylation-specific antibody in a fluorescent plate reader.

[2] = Pharmacokinetic study, 4ET-03-009 at 10 mg/kg oral; assay type: in vivo, CD-1 male mice; conditions: for AUCinf/D / Cmax/D: dose normalized; for concentration at 24 hours: read-out: Clast
Experimental: Compound 4ET-03-009 was dissolved in a 10% dimethylacetamide (DMA)/[…] solvent. CD-1 male mice were orally dosed with 10 mg/kg of compound 4ET-03-009 in 20 mL/kg of liquid. Plasma was collected at indicated timepoints and plasma concentration of compound 4ET-03-009 was measured using liquid chromatography-mass spectrometry/mass spectrometry (LC-MS/MS). Results are presented in FIG. 1 and Tables 3, 4, and 5.

[3] = Liver microsome stability, human; assay type: in vitro ADME; conditions: liver microsomes
[4] = target: Cdc2-like kinase 4 (CLK4) (Homo sapiens, UniProt Q9HAZ1); test: Off-target kinase screen CLK4; assay type: biochemical; conditions: 1 μM test compound
Chain of Cdc2-like kinase 4 (CLK4) (Q9HAZ1 whole entry): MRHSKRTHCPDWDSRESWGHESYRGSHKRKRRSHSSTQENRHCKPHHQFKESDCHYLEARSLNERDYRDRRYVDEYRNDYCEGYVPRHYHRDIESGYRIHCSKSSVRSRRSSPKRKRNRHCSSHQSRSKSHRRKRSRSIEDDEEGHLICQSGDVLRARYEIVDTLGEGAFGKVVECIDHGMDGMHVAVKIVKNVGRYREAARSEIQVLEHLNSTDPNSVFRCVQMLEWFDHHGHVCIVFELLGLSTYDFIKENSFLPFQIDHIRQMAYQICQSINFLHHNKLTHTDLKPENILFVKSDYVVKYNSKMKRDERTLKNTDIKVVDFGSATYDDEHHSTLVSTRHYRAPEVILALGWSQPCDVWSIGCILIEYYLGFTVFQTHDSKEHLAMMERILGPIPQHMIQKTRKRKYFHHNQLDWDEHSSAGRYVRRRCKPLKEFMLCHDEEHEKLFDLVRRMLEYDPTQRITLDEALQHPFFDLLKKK
Excerpt: (§1) These kinases were chosen because they are the only known off-target hit kinases for eFT508. These assays were done using recombinant human kinases (CLK4, DRAK1 and PKG2) in a substrate phosphorylation assay. % activity remaining after MNK inhibitor treatment is indicated in Table 12.

[5] = target: T1, death-associated protein kinase-related apoptosis-inducing protein kinase 1 (DRAK1) (Homo sapiens, UniProt Q9UEE5); test: Off-target kinase screen DRAK1; assay type: biochemical; conditions: 1 μM test compound
T1 sequence (Q9UEE5 1-414): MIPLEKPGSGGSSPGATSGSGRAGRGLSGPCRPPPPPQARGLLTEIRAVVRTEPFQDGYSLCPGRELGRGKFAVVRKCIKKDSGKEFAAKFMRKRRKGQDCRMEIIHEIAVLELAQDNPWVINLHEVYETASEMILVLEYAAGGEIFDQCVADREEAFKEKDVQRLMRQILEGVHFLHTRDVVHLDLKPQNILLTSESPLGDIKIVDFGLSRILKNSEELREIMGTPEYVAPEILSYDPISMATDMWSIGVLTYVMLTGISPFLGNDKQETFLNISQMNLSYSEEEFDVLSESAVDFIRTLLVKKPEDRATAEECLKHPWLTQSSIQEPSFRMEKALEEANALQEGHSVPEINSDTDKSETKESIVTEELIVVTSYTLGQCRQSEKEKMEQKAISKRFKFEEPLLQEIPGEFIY
Excerpt: as §1

[6] = target: T2, protein kinase G 2 (PKG2) (Homo sapiens, UniProt Q13237); test: Off-target kinase screen PKG2; assay type: biochemical; conditions: 1 μM test compound
T2 sequence (Q13237 1-762): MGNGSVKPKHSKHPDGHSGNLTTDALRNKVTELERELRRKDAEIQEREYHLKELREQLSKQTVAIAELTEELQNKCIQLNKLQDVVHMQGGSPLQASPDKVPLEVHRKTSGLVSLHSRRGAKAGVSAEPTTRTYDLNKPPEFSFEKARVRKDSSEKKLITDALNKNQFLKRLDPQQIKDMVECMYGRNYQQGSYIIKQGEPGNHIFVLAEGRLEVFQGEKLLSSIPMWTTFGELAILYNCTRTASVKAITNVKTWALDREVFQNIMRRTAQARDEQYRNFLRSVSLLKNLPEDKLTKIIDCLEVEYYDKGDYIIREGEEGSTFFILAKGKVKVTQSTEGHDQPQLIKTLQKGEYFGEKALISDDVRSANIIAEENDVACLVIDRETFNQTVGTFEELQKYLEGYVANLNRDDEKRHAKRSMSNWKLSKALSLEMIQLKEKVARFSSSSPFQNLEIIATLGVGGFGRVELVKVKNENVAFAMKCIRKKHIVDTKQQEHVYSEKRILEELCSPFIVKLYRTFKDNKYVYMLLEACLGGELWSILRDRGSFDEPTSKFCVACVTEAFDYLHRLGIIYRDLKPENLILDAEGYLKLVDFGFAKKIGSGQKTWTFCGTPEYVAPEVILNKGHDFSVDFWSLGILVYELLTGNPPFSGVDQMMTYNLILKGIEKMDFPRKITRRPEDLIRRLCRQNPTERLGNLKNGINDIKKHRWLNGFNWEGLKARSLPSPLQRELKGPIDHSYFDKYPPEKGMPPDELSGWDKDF
Excerpt: as §1

[7] = male, CD-1, mouse, plasma, po, 10 mg/kg, Mean (n = 3)
[8] = male, CD-1, mouse, plasma, po, 10 mg/kg, individual animals

Cc1cc(Nc2cc(NC(=O)C3CC3)ncn2)c(=O)n2c1C(=O)NC21CCOCC1 [Compound 4ET-03-009, N-(6-((8-Methyl-1,5-dioxo-1,2′,3′,5,5′,6′-hexahydro-2H-spiro[imidazo[1,5-a]pyridine-3,4′-pyran]-6-yl)amino)pyrimidin-4-yl)cyclopropanecarboxamide]
IC50 [1]: 1.7 nM | abnormal clinical symptoms during the study [2]: No abnormal clinical symptoms were observed | Plasma Conc. (per mouse n = 3) ([2]; 0.083 hours): 85.3 ng/mL and 106 ng/mL | Plasma Conc. (per mouse n = 3) ([2]; 0.25 hours): 147 ng/mL and 161 ng/mL | Plasma Conc. (per mouse n = 3) ([2]; 0.5 hours): 270 ng/mL and 205 ng/mL | Plasma Conc. (per mouse n = 3) ([2]; 1 hours): 318 ng/mL and 233 ng/mL | Plasma Conc. (per mouse n = 3) ([2]; 2 hours): 271 ng/mL and 216 ng/mL | Plasma Conc. (per mouse n = 3) ([2]; 4 hours): 169 ng/mL and 124 ng/mL | Plasma Conc. (per mouse n = 3) ([2]; 6 hours): 80.2 ng/mL and 70.6 ng/mL | Plasma Conc. (per mouse n = 3) ([2]; 8 hours): 62.9 ng/mL and 53.9 ng/mL | Plasma Conc. (per mouse n = 3) ([2]; 24 hours): 2.28 ng/mL and 1.84 ng/mL | Tlast ([2]; Mean (n = 3)): 24.0 h | t1/2 ([2]; Mean (n = 3)): 3.46 h | AUCinf/D ([2]; Mean (n = 3)): 162 kg·h/kL | Cmax/D ([2]; Mean (n = 3)): 29.4 kg/kL | AUC0-8 hours ([2]; individual animals): 1349 ng·h/mL and 1066 ng·h/mL | AUCinf ([2]; individual animals): 1882 ng·h/mL and 1520 ng·h/mL | AUClast ([2]; individual animals): 1870 ng·h/mL and 1511 ng·h/mL | Clast ([2]; individual animals): 2.28 ng/mL and 1.84 ng/mL | Cmax ([2]; individual animals): 318 ng/mL and 233 ng/mL | MRTinf ([2]; individual animals): 4.64 h and 4.74 h | Tlast ([2]; individual animals): 24.0 h | t1/2 ([2]; individual animals): 3.44 h and 3.37 h | AUCinf/D ([2]; individual animals): 147 kg·h/kL and 188 kg·h/kL and 152 kg·h/kL | Cmax/D ([2]; individual animals): 33.1 kg/kL and 31.8 kg/kL and 23.3 kg/kL | Tmax ([2]; male, CD-1, mouse, plasma, individual animals): 1 h | concentration at 0.083 h ([2]; male, CD-1, mouse, plasma, oral, 10 mg/kg, 0.083 hours, mean n = 3, read-out: Plasma Conc. Mean): 90.4 ng/mL | concentration at 0.083 h ([2]; male, CD-1, mouse, plasma, oral, 10 mg/kg, 0.083 hours, read-out: Plasma Conc. (per mouse n = 3)): 79.8 ng/mL | concentration at 0.25 h ([2]; male, CD-1, mouse, plasma, oral, 10 mg/kg, 0.25 hours, mean n = 3, read-out: Plasma Conc. Mean): 138 ng/mL | concentration at 0.25 h ([2]; male, CD-1, mouse, plasma, oral, 10 mg/kg, 0.25 hours, read-out: Plasma Conc. (per mouse n = 3)): 106 ng/mL | concentration at 0.5 hours ([2]; male, CD-1, mouse, plasma, oral, 10 mg/kg, 0.5 hours, mean n = 3, read-out: Plasma Conc. Mean): 226 ng/mL | concentration at 0.5 h ([2]; male, CD-1, mouse, plasma, oral, 10 mg/kg, 0.5 hours, read-out: Plasma Conc. (per mouse n = 3)): 202 ng/mL | concentration at 1 h ([2]; male, CD-1, mouse, plasma, oral, 10 mg/kg, 1 hours, mean n = 3, read-out: Plasma Conc. Mean): 294 ng/mL | concentration at 1 h ([2]; male, CD-1, mouse, plasma, oral, 10 mg/kg, 1 hours, read-out: Plasma Conc. (per mouse n = 3)): 331 ng/mL | concentration at 2 h ([2]; male, CD-1, mouse, plasma, oral, 10 mg/kg, 2 hours, mean n = 3, read-out: Plasma Conc. Mean): 255 ng/mL | concentration at 2 h ([2]; male, CD-1, mouse, plasma, oral, 10 mg/kg, 2 hours, read-out: Plasma Conc. (per mouse n = 3)): 227 ng/mL | concentration at 4 h ([2]; male, CD-1, mouse, plasma, oral, 10 mg/kg, 4 hours, mean n = 3, read-out: Plasma Conc. Mean): 132 ng/mL | concentration at 4 h ([2]; male, CD-1, mouse, plasma, oral, 10 mg/kg, 4 hours, read-out: Plasma Conc. (per mouse n = 3)): 104 ng/mL | concentration at 6 h ([2]; male, CD-1, mouse, plasma, oral, 10 mg/kg, 6 hours, mean n = 3, read-out: Plasma Conc. Mean): 66.7 ng/mL | concentration at 6 h ([2]; male, CD-1, mouse, plasma, oral, 10 mg/kg, 6 hours, read-out: Plasma Conc. (per mouse n = 3)): 49.3 ng/mL | concentration at 8 h ([2]; male, CD-1, mouse, plasma, oral, 10 mg/kg, 8 hours, mean n = 3, read-out: Plasma Conc. Mean): 52.5 ng/mL | concentration at 8 h ([2]; male, CD-1, mouse, plasma, oral, 10 mg/kg, 8 hours, read-out: Plasma Conc. (per mouse n = 3)): 40.6 ng/mL | concentration at 24 h ([2]; male, CD-1, mouse, plasma, oral, 10 mg/kg, 24 hours, mean n = 3, read-out: Plasma Conc. Mean): 1.92 ng/mL | concentration at 24 h ([2]; male, CD-1, mouse, plasma, oral, 10 mg/kg, 24 hours, read-out: Plasma Conc. (per mouse n = 3)): 1.64 ng/mL | concentration at 24 hours ([2]; male, CD-1, mouse, plasma, oral, 10 mg/kg, Mean (n = 3)): 1.92 ng/mL | concentration at 24 hours ([2]; male, CD-1, mouse, plasma, oral, 10 mg/kg, individual animals): 1.64 ng/mL | AUC(0-inf) [2, 7]: 1620 ng·h/mL | MRT inf [2, 7]: 4.5 h | half-life [2, 7]: 3.5 h | AUC(0-t) ([2]; male, CD-1, mouse, plasma, po, 10 mg/kg, Mean (n = 3), read-out: AUC0-8 hours): 1180 ng·h/mL | AUC(0-t) ([2]; male, CD-1, mouse, plasma, po, 10 mg/kg, Mean (n = 3), read-out: AUClast): 1610 ng·h/mL | Cmax ([2]; male, CD-1, mouse, plasma, po, 10 mg/kg, Mean (n = 3), read-out: Cmax): 294 ng/mL | AUC(0-inf) ([2]; male, CD-1, mouse, plasma, po, 10 mg/kg, for the study): 1620 ng·h/mL | Cmax ([2]; male, CD-1, mouse, plasma, po, 10 mg/kg, for the study, read-out: Cmax): 716 nM | AUC(0-inf) [2, 8]: 1460 ng·h/mL | MRT inf [2, 8]: 4.12 h | half-life [2, 8]: 3.58 h | AUC(0-t) ([2]; male, CD-1, mouse, plasma, po, 10 mg/kg, individual animals, read-out: AUC0-8 hours): 1120 ng·h/mL | AUC(0-t) ([2]; male, CD-1, mouse, plasma, po, 10 mg/kg, individual animals, read-out: AUClast): 1460 ng·h/mL | Cmax ([2]; male, CD-1, mouse, plasma, po, 10 mg/kg, individual animals, read-out: Cmax): 331 ng/mL | microsomal CLint [3]: 2.16 µL/min/mg | half-life ([3]; read-out: Human liver microsomes t1/2): 10.7 h | remaining activity at 1 µM [4]: 54% | remaining activity at 1 µM [5]: 16% | remaining activity at 1 µM [6]: 99%
